IC50 and inhibition data for nine compounds are collected here from ChEMBL document CHEMBL1157005, “A new structural class of S-adenosylhomocysteine hydrolase inhibitors” (Bioorg Med Chem, 2009).

Test [1] deals with T1, Adenosylhomocysteinase (Homo sapiens, UniProt P23526). The test is described as follows: Inhibition of S-adenosyl-L-homocysteine hydrolase after 10 mins by scintillation counting.
Target sequence in this assay (P23526 whole entry): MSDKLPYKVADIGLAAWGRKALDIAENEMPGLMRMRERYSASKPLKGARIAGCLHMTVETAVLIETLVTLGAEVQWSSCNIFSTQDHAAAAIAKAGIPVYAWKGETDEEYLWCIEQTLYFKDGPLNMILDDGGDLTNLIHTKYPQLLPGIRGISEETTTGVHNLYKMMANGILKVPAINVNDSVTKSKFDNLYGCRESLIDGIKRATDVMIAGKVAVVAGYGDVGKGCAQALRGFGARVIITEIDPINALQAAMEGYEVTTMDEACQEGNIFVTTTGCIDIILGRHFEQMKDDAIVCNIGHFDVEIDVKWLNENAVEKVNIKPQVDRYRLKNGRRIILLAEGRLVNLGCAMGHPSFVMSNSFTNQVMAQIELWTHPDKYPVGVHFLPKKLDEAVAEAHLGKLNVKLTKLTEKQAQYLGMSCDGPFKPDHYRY
The target in test [2] is T1, Adenosylhomocysteinase. Nature of the test: Inhibition of S-adenosyl-L-homocysteine hydrolase at 2 uM after 10 mins by scintillation counting.
Target sequence in this assay (P23526 2-432 limits assumed): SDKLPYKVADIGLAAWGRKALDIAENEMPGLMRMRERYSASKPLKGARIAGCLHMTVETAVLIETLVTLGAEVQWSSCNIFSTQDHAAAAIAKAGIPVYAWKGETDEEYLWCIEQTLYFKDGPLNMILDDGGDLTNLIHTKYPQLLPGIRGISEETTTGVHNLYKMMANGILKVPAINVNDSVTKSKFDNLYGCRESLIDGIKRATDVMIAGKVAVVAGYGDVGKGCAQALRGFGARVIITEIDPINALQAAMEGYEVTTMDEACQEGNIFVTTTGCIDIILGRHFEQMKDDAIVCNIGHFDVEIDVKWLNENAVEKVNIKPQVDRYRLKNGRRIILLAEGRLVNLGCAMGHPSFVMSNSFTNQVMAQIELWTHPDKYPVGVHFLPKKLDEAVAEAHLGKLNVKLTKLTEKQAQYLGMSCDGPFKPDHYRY
Test [3] concerns the target T1, Adenosylhomocysteinase. The test is described as follows: Inhibition of S-adenosyl-L-homocysteine hydrolase at 50 uM after 10 mins by scintillation counting.
Target sequence in this assay (P23526 2-432 limits assumed): as above
For test [4], the target named is T2, Adenosylhomocysteinase (Rattus norvegicus, UniProt P10760).
T2 sequence (P10760 whole entry): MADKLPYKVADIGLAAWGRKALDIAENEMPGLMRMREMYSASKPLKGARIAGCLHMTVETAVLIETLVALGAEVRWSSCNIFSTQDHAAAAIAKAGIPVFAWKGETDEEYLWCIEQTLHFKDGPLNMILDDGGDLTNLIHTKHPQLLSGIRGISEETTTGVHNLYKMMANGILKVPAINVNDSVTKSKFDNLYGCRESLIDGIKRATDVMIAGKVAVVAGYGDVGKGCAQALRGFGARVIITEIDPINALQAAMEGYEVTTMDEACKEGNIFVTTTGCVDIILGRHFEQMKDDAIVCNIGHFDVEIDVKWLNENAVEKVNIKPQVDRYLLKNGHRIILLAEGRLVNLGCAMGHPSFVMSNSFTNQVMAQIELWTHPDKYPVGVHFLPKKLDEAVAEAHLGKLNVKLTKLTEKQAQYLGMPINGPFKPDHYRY
The test is described as follows: Inhibition of S-adenosyl-L-homocysteine hydrolase in intact rat hepatocytes. The test is classed as cell-based, Hepatocyte.

The target in test [5] is Adenosylhomocysteinase (Plasmodium falciparum 3D7, UniProt P50250). The test is described as follows: Inhibition of Plasmodium falciparum S-adenosyl-homocysteine hydrolase.
Chain of Adenosylhomocysteinase (Plasmodium falciparum 3D7, UniProt P50250) (P50250 whole entry): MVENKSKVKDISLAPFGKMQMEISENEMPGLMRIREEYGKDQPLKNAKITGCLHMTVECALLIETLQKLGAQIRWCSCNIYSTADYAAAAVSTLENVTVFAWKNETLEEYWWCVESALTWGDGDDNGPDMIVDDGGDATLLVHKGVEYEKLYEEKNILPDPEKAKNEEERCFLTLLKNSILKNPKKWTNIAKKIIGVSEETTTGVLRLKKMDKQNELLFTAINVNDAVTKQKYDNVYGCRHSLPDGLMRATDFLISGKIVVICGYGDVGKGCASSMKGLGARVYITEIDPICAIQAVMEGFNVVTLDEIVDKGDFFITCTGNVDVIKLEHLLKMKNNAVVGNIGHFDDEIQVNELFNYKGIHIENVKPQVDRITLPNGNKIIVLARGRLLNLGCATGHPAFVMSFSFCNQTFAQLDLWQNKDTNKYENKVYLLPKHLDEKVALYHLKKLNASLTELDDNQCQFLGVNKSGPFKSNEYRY

On to `COC1=CC(=O)C(O)=C(C[C@@]2(C)[C@@H]3CCC[C@H](COC(=O)CCCCCNC(=O)OC(C)(C)C)[C@@]3(C)CC[C@@H]2C)C1=O`, for which the IC50 (as a rule, the concentration needed to halve the response being measured) at Adenosylhomocysteinase [1] was less than 20000 nM. Consider `C=C1CCC[C@H]2[C@](C)(CC3=C(O)C(=O)C=C(OC)C3=O)[C@@H](C)CC[C@]12C` [ILIMAQUINONE], for which 40000 nM corresponded to half-maximal inhibition at Adenosylhomocysteinase [1] (IC50). On to `CCCCCOc1cc(Cn2cnc3c(N)ncnc32)cc(O)c1O`, for which the inhibition – broadly, the relative decrease from the control value, in per cent – at Adenosylhomocysteinase [2] was 12%; against Adenosylhomocysteinase [3] it was 47%. Take `Nc1ncnc2c1ncn2Cc1cc(OCC2CCCCC2)cc(O)c1O`: on Adenosylhomocysteinase [1], the midpoint of inhibition, the IC50, lay at 400 nM.

Compound `Nc1ncnc2c1ncn2C[C@@H](O)[C@@H](O)C(=O)O` [ERITADENINE] displayed an IC50 against Adenosylhomocysteinase [4] of 30 nM. In other words, the double-digit nanomolar range. As to `Nc1ncnc2c1ncn2[C@@H]1C[C@H](O)[C@@H](O)[C@H]1O` [NORARISTEROMYCIN], the IC50 against Adenosylhomocysteinase [5] turned out to be 1100 nM. This counts as single-digit micromolar. Consider `Nc1ncnc2c1ncn2Cc1cc(O)c(O)c(OCc2ccccc2)c1`, for which the inhibition on Adenosylhomocysteinase [2] is 12%; against Adenosylhomocysteinase [3], 70%. Take `Nc1ncnc2c1ncn2Cc1cc(O)c(O)c(OCC2CCCCC2)c1`: the inhibition against Adenosylhomocysteinase [2] came out at 17%; on Adenosylhomocysteinase [3], 74%. `C=C1[C@H](OC(=O)CCCCCNC(=O)OC(C)(C)C)CC[C@H]2[C@](C)(CC3=C(Cl)C(=O)C=C(OC)C3=O)[C@@H](C)CC[C@]12C`: the IC50 against Adenosylhomocysteinase [1] was more than 250000 nM.
